Assay results reported in patent US10611750B2, “Tetrahydroquinoline compositions as bet bromodomain inhibitors” (FORMA Therapeutics, Inc., priority 2013, dated 2020).
pIC50: −log10 of the molar value. Like-named read-outs stand apart in the source and are kept apart here.

How the values were obtained:
[1] = molecular target: T1, BRD4 Bromodomain 2 (BRD4 BD2) (Homo sapiens, UniProt O60885); test: AlphaScreen binding assay, BRD4 BD2; details: His-tagged BRD4 BD2 100 nM, biotinylated H4 (1-21) K5/8/12/16 tetra-acetylated peptide 100 nM, compounds listed under IC50 range headings
T1 construct: 333-460 were cloned, expressed, and purified to homogeneity
Protocol: The binding of Example compounds to BRD4 Bromodomain 1 and BRD4 Bromodomain 2 was assessed using 384-well AlphaScreen assay technology. His-epitope tagged BRD4 BD144-168 and BRD4 BD2333-460 were cloned, expressed, and purified to homogeneity. BRD4 BD1 and BRD4 BD2 binding and inhibition was assessed by monitoring the engagement of biotinylated Histone H4 (1-21) K5/8/12/16 tetra-acetylated peptide with the targets using the AlphaScreen technology (PerkinElmer). Specifically, in a 384-well black or white flat bottom plate, BRD4 BD1 (50 nM final) or BRD4 BD2 (100 nM final) was combined with peptide (50 nM final for BD1 or 100 nM final for BD2) in 50 mM HEPES (pH 7.3), 100 mM NaCl, 0.1% (w/v) BSA, and 0.01% (w/v) Triton X-100 either in the presence of DMSO (final 1.25% DMSO) or compound dilution series in DMSO. Alpha streptavidin donor beads and Nickel-chelate acceptor beads were added to a final concentration of 10 μg/ml each. After a minimum of 1 hour equilibration, plates were read on a BMG PHERAstar FS multi-label reader (BMG LabTech). The half maximal inhibitory concentration (IC50) values were calculated using IDBS Activity Base software with a four parameter logistic curve fit by the equation y=A+((B−A)/(1+((C/x)^D))), wherein A denotes the bottom plateau of the curve, B denotes the top plateau of the curve, C denotes the x value at the middle of the curve, D denotes the slope factor, x denotes the original known x values, and y denotes the original known y values. Data was fitted using the Levenburg Marquardt algorithm.

[2] = molecular target: T2, BRD4 Bromodomain 1 (BRD4 BD1) (Homo sapiens, UniProt O60885); test: AlphaScreen binding assay, BRD4 BD1; details: His-tagged BRD4 BD1 50 nM, biotinylated H4 (1-21) K5/8/12/16 tetra-acetylated peptide 50 nM, compounds listed under IC50 range headings
T2 construct: 44-168 and BRD4 BD2
Procedure, shortened: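 Compound dilution series were mixed with His-tagged BRD4 bromodomain and biotinylated tetra-acetylated H4 (1-21) peptide at pH 7.3 (BD1 and peptide at 50 nM, BD2 and peptide at 100 nM). Donor and acceptor beads were then added, and plates were equilibrated at least 1 h before reading. IC50 values were fitted with a four-parameter logistic model.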

[3] = test system: acute myelocytic leukemia (AML) cell line MV4-11; test: Oncology cell growth assay (3-day proliferation, CellTiter-Glo); type: cell-based; details: Homo sapiens, MV4-11 cells, 3000 cells/well, compounds listed under IC50 range headings, read-out: MV411 IC50 (gIC50, inhibition of proliferation)
Procedure, shortened: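 72 h, 37° C, 5% CO2; MV4-11, 3000 cells/well, RPMI 1640 + 10% FBS. Compound final 10, 3.3, 1.1, 0.37, 0.12, 0.041, 0.013, 0.0045 μM. Readout CellTiter-Glo luminescence; gIC50 by 4-parameter logistic fit, normalised to DMSO and no-cell background.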

## CC(=O)N1c2ccc(-c3ccc(S(C)(=O)=O)cc3)c(Oc3ccccc3)c2CCC1C (racemic) [I-111, rac-1-(2-methyl-6-(4-(methylsulfonyl)phenyl)-5-phenoxy-3,4-dihydroquinolin-1(2H)-yl)ethanone]
[1]
  pIC50: > 7.30
[2]
  pIC50: 5.00 to 6.00

## CC(=O)N1c2cccc(Oc3ccccc3)c2CCC1C (racemic) [I-112, rac-1-(2-methyl-5-phenoxy-3,4-dihydroquinolin-1(2H)-yl)ethanone]
[1]
  pIC50: 6.30 to 7.30
[2]
  pIC50: ≤ 5.00

## CC(=O)N1c2ccc(-c3cnn(CCO)c3)c(OCC(=O)N(C)C)c2CC[C@@H]1C [I-2, (S)-2-(1-acetyl-6-(1-(2-hydroxyethyl)-1H-pyrazol-4-yl)-2-methyl-1,2,3,4-tetrahydroquinolin-5-yloxy)-N,N-dimethylacetamide]
[1]
  pIC50: 6.30 to 7.30
[2]
  pIC50: 5.00 to 6.00

## COC(=O)N1c2ccc(-c3cnn(CCO)c3)c(OCC(=O)N(C)C)c2CC[C@@H]1C [I-3, (S)-methyl 5-(2-(dimethylamino)-2-oxoethoxy)-6-(1-(2-hydroxyethyl)-1H-pyrazol-4-yl)-2-methyl-3,4-dihydroquinoline-1(2H)-carboxylate]
[1]
  pIC50: 6.30 to 7.30
[2]
  pIC50: 5.00 to 6.00

## CCNC(=O)COc1c(-c2cnn(C3CC3)c2)ccc2c1CC[C@H](C)N2C(C)=O [I-4, (S)-2-(1-acetyl-6-(1-cyclopropyl-1H-pyrazol-4-yl)-2-methyl-1,2,3,4-tetrahydroquinolin-5-yloxy)-N-ethylacetamide]
[1]
  pIC50: 6.30 to 7.30
[2]
  pIC50: 5.00 to 6.00

## CC(=O)N1c2ccc(-c3cnn(C4CC4)c3)c(OCCF)c2CC[C@@H]1C [I-5, (S)-1-(6-(1-cyclopropyl-1H-pyrazol-4-yl)-5-(2-fluoroethoxy)-2-methyl-3,4-dihydroquinolin-1(2H)-yl)ethanone]
[1]
  pIC50: 6.30 to 7.30
[2]
  pIC50: 5.00 to 6.00

## CC(=O)N1c2ccc(-c3cnn(C4CC4)c3)c(OCC(=O)N(C)C3CC3)c2CC[C@@H]1C [I-6, (S)-2-(1-acetyl-6-(1-cyclopropyl-1H-pyrazol-4-yl)-2-methyl-1,2,3,4-tetrahydroquinolin-5-yloxy)-N-cyclopropyl-N-methylacetamide]
[1]
  pIC50: ≤ 6.30
[2]
  pIC50: 5.00 to 6.00

## COC(=O)N1c2ccc(-c3cnn(C4CC4)c3)c(OCC(F)(F)F)c2CC[C@@H]1C [I-9, (S)-methyl 6-(1-cyclopropyl-1H-pyrazol-4-yl)-2-methyl-5-(2,2,2-trifluoroethoxy)-3,4-dihydroquinoline-1(2H)-carboxylate]
[1]
  pIC50: ≤ 6.30
[2]
  pIC50: ≤ 5.00

## COC(=O)N1c2ccc(-c3cnn(C4CC4)c3)c(OCC(F)F)c2CC[C@@H]1C [I-10, (S)-methyl 6-(1-cyclopropyl-1H-pyrazol-4-yl)-5-(2,2-difluoroethoxy)-2-methyl-3,4-dihydroquinoline-1(2H)-carboxylate]
[1]
  pIC50: 6.30 to 7.30
[2]
  pIC50: 5.00 to 6.00

## COC(=O)N1c2ccc(-c3cnn(C4CC4)c3)c(OCC(C)(F)F)c2CC[C@@H]1C [I-12, (S)-methyl 6-(1-cyclopropyl-1H-pyrazol-4-yl)-5-(2,2-difluoropropoxy)-2-methyl-3,4-dihydroquinoline-1(2H)-carboxylate]
[1]
  pIC50: ≤ 6.30
[2]
  pIC50: ≤ 5.00

## COC(=O)N1c2ccc(-c3cnn(C4CC4)c3)c(OC(CF)CF)c2CC[C@@H]1C [I-15, (S)-methyl 6-(1-cyclopropyl-1H-pyrazol-4-yl)-5-(1,3-difluoropropan-2-yloxy)-2-methyl-3,4-dihydroquinoline-1(2H)-carboxylate]
[1]
  pIC50: 6.30 to 7.30
[2]
  pIC50: 5.00 to 6.00

## C#Cc1ccc2c(c1Oc1ccccc1)CC[C@H](C)N2C(=O)C1CC1 [I-345, (S)-cyclopropyl(6-ethynyl-2-methyl-5-phenoxy-3,4-dihydroquinolin-1(2H)-yl)methanone]
[2]
  pIC50: ≤ 5.00
[3]; MV4-11, 72 h
  pIC50: < 6.00

## C#Cc1ccc2c(c1Oc1ccccc1)CC[C@H](C)N2C(=O)OC [I-346, (S)-methyl 6-ethynyl-2-methyl-5-phenoxy-3,4-dihydroquinoline-1(2H)-carboxylate]
[2]
  pIC50: ≤ 5.00
[3]; MV4-11, 72 h
  pIC50: < 6.00

## CC#Cc1ccc2c(c1Oc1ccccc1)CC[C@H](C)N2C(=O)C1CC1 [I-347, (S)-cyclopropyl(2-methyl-5-phenoxy-6-(prop-1-ynyl)-3,4-dihydroquinolin-1(2H)-yl)methanone]
[2]
  pIC50: ≤ 5.00
[3]; MV4-11, 72 h
  pIC50: < 6.00

## C[C@H]1CCc2c(ccc(-n3cc(C4CCNCC4)cn3)c2Oc2ccccc2)N1C(=O)C1CC1 [I-348, (S)-cyclopropyl(2-methyl-5-phenoxy-6-(4-(piperidin-4-yl)-1H-pyrazol-1-yl)-3,4-dihydroquinolin-1(2H)-yl)methanone]
[2]
  pIC50: 5.00 to 6.00
[3]; MV4-11, 72 h
  pIC50: > 6.30

## COC(=O)N1c2ccc(-c3csc(C4(F)CNC4)n3)c(OC3CCC3)c2CC[C@@H]1C [I-349, (S)-methyl 5-cyclobutoxy-6-(2-(3-fluoroazetidin-3-yl)thiazol-4-yl)-2-methyl-3,4-dihydroquinoline-1(2H)-carboxylate]
[2]
  pIC50: 5.00 to 6.00
[3]; MV4-11, 72 h
  pIC50: < 6.00

## COC(=O)N1c2ccc(-c3csc(C4(OC)CNC4)n3)c(OC3CCC3)c2CC[C@@H]1C [I-350, (S)-methyl 5-cyclobutoxy-6-(2-(3-methoxyazetidin-3-yl)thiazol-4-yl)-2-methyl-3,4-dihydroquinoline-1(2H)-carboxylate]
[2]
  pIC50: 5.00 to 6.00
[3]; MV4-11, 72 h
  pIC50: < 6.00

## COC(=O)N1c2ccc(-c3cnn(C4CCNCC4)c3F)c(OC3CCC3)c2CC[C@@H]1C [I-360, methyl (S)-5-cyclobutoxy-6-(5-fluoro-1-(piperidin-4-yl)-1H-pyrazol-4-yl)-2-methyl-3,4-dihydroquinoline-1(2H)-carboxylate]
[2]
  pIC50: 6.00 to 7.00
[3]; 72 hours
  pIC50: > 6.30

## COC(=O)N1c2ccc(-c3cnn([C@@H]4CCNC[C@H]4F)c3)c(OC3CCC3)c2CC[C@@H]1C [I-367, methyl (2S)-5-cyclobutoxy-6-{1-[(3R,4R)-3-fluoropiperidin-4-yl]-1H-pyrazol-4-yl}-2-methyl-1,2,3,4-tetrahydroquinoline-1-carboxylate]
[2]
  pIC50: 6.00 to 7.00
[3]; MV4-11, 72 h
  pIC50: > 6.30

## COC(=O)N1c2ccc(-c3cnn([C@@H]4CCNC[C@H]4F)c3)c(Oc3ccc(F)cc3)c2CC[C@@H]1C [I-368, methyl (2S)-5-(4-fluorophenoxy)-6-{1-[(3R,4R)-3-fluoropiperidin-4-yl]-1H-pyrazol-4-yl}-2-methyl-1,2,3,4-tetrahydroquinoline-1-carboxylate]
[2]
  pIC50: 6.00 to 7.00
[3]; MV4-11, 72 h
  pIC50: > 6.30

## C[C@H]1CCc2c(ccc(-c3cnn([C@@H]4CCNC[C@@H]4F)c3)c2OC2CCC2)N1C(=O)C1CC1 [I-369, (2S)-5-cyclobutoxy-1-cyclopropanecarbonyl-6-{1-[(3S,4R)-3-fluoropiperidin-4-yl]-1H-pyrazol-4-yl}-2-methyl-1,2,3,4-tetrahydroquinoline]
[2]
  pIC50: 6.00 to 7.00
[3]; MV4-11, 72 h
  pIC50: > 6.30

## CC(=O)N1c2ccc(-c3cnn(C4CC4)c3)c(OCC(C)C)c2CC[C@@H]1C [I-394]
[2]
  pIC50: 6.00 to 7.00
[3]; MV4-11, 72 h
  pIC50: > 6.30

## C[C@H]1CCc2c(ccc(-c3cnn(C4CCOCC4)c3)c2OC2CCC2)N1C(=O)C1CC1 [I-507]
[2]
  pIC50: 6.00 to 7.00
[3]; MV4-11, 72 h
  pIC50: 6.00 to 6.30

## C[C@H]1CCc2c(ccc(-c3cnn(C4CCCS(=O)(=O)C4)c3)c2OC2CCC2)N1C(=O)C1CC1 (some centres unmarked) [I-508]
[2]
  pIC50: 6.00 to 7.00
[3]; MV4-11, 72 h
  pIC50: > 6.30

## C[C@H]1CCc2c(ccc(-c3cnn(C4CS(=O)(=O)C4)c3)c2OC2CCC2)N1C(=O)C1CC1 [I-509]
[2]
  pIC50: 6.00 to 7.00
[3]; MV4-11, 72 h
  pIC50: > 6.30
